In data set [1] the test system is platelet activating factor (PAF)-induced mortality. As to the kind of experiment: Inhibition effect on platelet activating factor (PAF)-induced mortality. It is filed as in vivo, male dd mice. The note with it: Mus musculus, po, PAF 40 μg/kg i.v., 3 h, n = 10, control group survival 0-20%, read-out: Survival rate of test compound-administered group. On the procedure: e) Inhibition effect on platelet activating factor (PAF)-induced mortality
The experiment was carried out by a minor modification of a known method [Br. J. Pharmacol., 79, 595 (1983)]. Groups each consisting of 10 male dd mice (weighing 28 to 32 g) were used, and 50 or 100 mg/kg of the test compound or a saline (control) was orally administered. One hour after the administration of test compound, 40 μg/kg of PAF (manufactured by Avanti Polar Lipids Co., Ltd.) was intravenously administered. Three hours after PAF injection, the mortality of the animals was observed.

The subject of data set [2] is carrageenin-induced paw edema. Briefly: Effect on carrageenin-induced paw edema. It is filed as in vivo, male Wistar rats. The note with it: Rattus norvegicus, 3 hours after carrageenin, read-out: Suppression rate for paw swelling, carrageenin-induced edema. On the procedure:
a) Effect on carrageenin-induced paw edema
Male Wistar rats weighing 150 to 160 g (n=3-5) were used in the experiment. After the right hind paw volume was measured with the plethysmograph (TK-101; Unicom Co., Ltd.), the test compound (25, 50 or 100 mg/kg) was orally administered. After one hour, 0.1 ml of 1% carrageenin (λ-carrageenin; PICNIN-A®, Zushi Kagaku Co., Ltd.) was subcutaneously injected into the right hind paw footpad. Three hours after the injection of carrageenin, the right hind paw volume was measured and the swelling rate was determined by the following equation 1. [formula] Vt: the right hind paw volume measured 3 hours after the injection of carrageenin
Vo: the right hind paw volume measured prior to the injection of carrageenin
The suppression rate was calculated by the following equation 2. [formula] Swt: the swelling rate of the group administered with the test compound Swc: the swelling rate of the control group administered with physiological saline solution

Data set [3] concerns passive Schultz-Dale reaction. Briefly: Effect on passive Schultz-Dale reaction (broncho-dilative activity), sensitized tracheal strips contracted by antigen. The arrangement: species or system male Hartley guinea pigs. The note with it: guinea pig tracheal zig-zag strips, 37° C., antigen egg white albumin 1 μg/ml; read-out: Passive Schultz-Dale reaction IC50 (concentration of 50% relaxation rate). Here is the method:
d) Effect on passive Schultz-Dale reaction (broncho-dilative activity)
Male Hartley guinea pigs weighing 350 to 500 g were passively sensitized by intraperitoneal injection of rabbit anti-OA serum prepared in advance by the method of Koda et al. [Folia Pharmacol., Japon 66, 237, (1970)]. After 24 hours, the guinea pigs were stunned and exsanguinated, and then tracheae were removed. The zig-zag strips of the tracheae were prepared by the method of Emmerson and Mackay [J. Pharm. Pharmacol., 31, 798, (1979)]. The strips were suspended in Krebs-Henseleit solution at 37° C. under aeration of a mixed gas of 95% oxygen and 5% carbon dioxide, and equilibrated for one hour. Then, antigen (egg white albumin) was introduced in the solution (final concentration; 1 μg/ml), and the contraction was measured by isotonictransducer (TD-112s, made by Nihon Kohden K.K., Japan) and recorded on a recorder (Type 3066, made by Yokogawa-Hokushin Denki, K.K. Japan). After the contraction curves reached a plateau, the test compounds were successively added in order to get cumulative concentration-relaxation curves. The concentration of 50% relaxation rate (IC50) was calculated from the regression line, which was obtained from the cumulative concentration-relaxation curves.

The subject of another data set is ddY strain male mice. As to the kind of experiment: Acute toxicity (Minimum Lethal Dose). The data set is classed as in vivo. On the procedure: The test compound was orally and intraperitoneally administered to ddY strain male mice weighing 20 to 25 g. MLD (Minimum Lethal Dose) was determined by observing the mortality for […] after the administration.

Structures can show the parent of a compound that is named as a salt.

On to `COc1ccc(-n2c(=O)c3c(ncn3Cc3ccccc3)c3cccnc32)cc1` [Compound 55, 5-(4-Methoxyphenyl)-3-benzyl-3H-imidazo[4,5-c][1,8]naphthyridin-4(5H)-one], for which the responders at 100 mg/kg in data set [1] came to 0%. Consider `Cc1ccc(-n2c(=O)c3[nH]cnc3c3cccnc32)cc1` [Compound 24, 5-(4-Methyl)phenyl-3H-imidazo[4,5-c][1,8]naphthyridin-4(5H)-one], for which the inhibition in vivo at 50 mg/kg in data set [2] (po, 50 mg/kg P.O.) is 0.3%. In data set [3], the IC50 was more than 10000 nM. Moreover, in data set [1], the responders at 100 mg/kg is 40%. Regarding `CCCCn1c(=O)c2[nH]cnc2c2cccnc21` [Compound 27, 5-n-Butyl-3H-imidazo[4,5-c][1,8]naphthyridin-4(5H)-one], in data set [2] (p.o.), the inhibition in vivo at 100 mg/kg stood at 8.6%. Besides, the IC50 in data set [3] was more than 10000 nM. Moreover, the responders at 100 mg/kg in data set [1] was found to be 60%. Turning to `O=c1c2c(ncn2CCCN2CCOCC2)c2cccnc2n1-c1ccccc1` [Compound 66 Sa, 3-(3-Morpholino)propyl-5-phenyl-3H-imidazo[4,5-c][1,8]naphthyridin-4(5H)-one hydrochloride], the responders at 100 mg/kg in data set [1] came to 70%. Further, in the data set with ddY strain male mice, the “MLD (Minimum Lethal Dose) i.p.” value was more than 100 mg/kg and the “MLD (Minimum Lethal Dose) p.o.” value is given as more than 300 mg/kg.

Turning to `O=c1c2c(ncn2C(c2ccccc2)c2ccccc2)c2cccnc2n1-c1ccccc1` [Compound 38, 3-(3-Diphenylmethyl)-5-phenyl-3H-imidazo-[4,5-c][1,8]naphthyridin-4(5H)-one], the responders at 100 mg/kg in data set [1] is 30%. For the compound `CCCC(CCC)n1cnc2c3cccnc3n(-c3ccccc3)c(=O)c21` [Compound 35, 3-(1-Propylbutyl)-5-phenyl-3H-imidazo[4,5-c][1,8]naphthyridin-4(5H)-one], in data set [1], the responders at 100 mg/kg was found to be 70%. In the data set on ddY strain male mice, the “MLD (Minimum Lethal Dose) i.p.” value is recorded as more than 100 mg/kg and the “MLD (Minimum Lethal Dose) p.o.” value is given as more than 300 mg/kg.

For `CCN(CC)CCCn1cnc2c3cccnc3n(-c3ccccc3)c(=O)c21` [Compound 67 Sa, 3-(3-Diethylamino)propyl-5-phenyl-3H-imidazo[4,5-c][1,8]naphthyridin-4(5H)-one hydrochloride], the responders at 100 mg/kg in data set [1] was found to be 30%. In the data set with ddY strain male mice, the “MLD (Minimum Lethal Dose) i.p.” value was more than 100 mg/kg and the “MLD (Minimum Lethal Dose) p.o.” value was more than 300 mg/kg. For the compound `O=c1c2c(ncn2Cc2cccnc2)c2cccnc2n1-c1ccccc1` [Compound 54, 5-Phenyl-3-(3-pyridyl)methyl-3H-imidazo[4,5-c][1,8]naphthyridin-4(5H)-one], the responders at 100 mg/kg in data set [1] was found to be 90%. As to `O=c1c2ncn(Cc3ccccc3)c2c2cccnc2n1-c1ccccc1` [Compound 7, 1-Benzyl-5-phenyl-1H-imidazo[4,5-c][1,8]naphthyridin-4(5H)-one], the IC50 in data set [3] is more than 10000 nM. In addition, in data set [1], the responders at 100 mg/kg was determined as 90%. In the case of `Cc1ccc(C)c(Cn2cnc3c4cccnc4n(-c4ccccc4)c(=O)c32)c1` [Compound 39, 3-(2,5-Dimethylphenyl)methyl-5-phenyl-3H-imidazo[4,5-c][1,8]naphthyridin-4(5H)-one], the responders at 100 mg/kg in data set [1] was found to be 0%. As for `O=c1c2c(ncn2Cc2ccccc2Cl)c2cccnc2n1-c1ccccc1` [Compound 48, 3-(2-Chlorophenyl)methyl-5-phenyl-3H-imidazo[4,5-c][1,8]naphthyridin-4(5H)-one], in data set [3], the IC50 was determined as 4900 nM. For the same compound, the responders at 100 mg/kg in data set [1] was 10%.

With `COC(=O)c1ccc(Cn2cnc3c4cccnc4n(-c4ccccc4)c(=O)c32)cc1` [Compound 50, 3-(4-Methoxycarbonylphenyl)methyl-5-phenyl-3H-imidazo[4,5-c][1,8]naphthyridin-4(5H)-one], the responders at 100 mg/kg in data set [1] is 0%. Regarding `Cn1cnc2c(=O)n(-c3ccccc3)c3ncccc3c21` [Compound 2, 1-Methyl-5-phenyl-1H-imidazo[4,5-c][1,8]naphthyridin-4(5H)-one], in the data set on ddY strain male mice, the “MLD (Minimum Lethal Dose) i.p.” value is more than 100 mg/kg and the “MLD (Minimum Lethal Dose) p.o.” value is more than 300 mg/kg. As for `COc1cccc(-n2c(=O)c3c(ncn3Cc3ccccc3)c3cccnc32)c1` [Compound 56, 5-(3-Methoxyphenyl)-3-benzyl-3H-imidazo[4,5-c][1,8]naphthyridin-4(5H)-one], in data set [1], the responders at 100 mg/kg worked out at 40%. On to `Cc1nc2c3cccnc3n(-c3ccccc3)c(=O)c2n1Cc1ccccc1` [Compound 60, 2-Methyl-5-phenyl-3-benzyl-3H-imidazo[4,5-c][1,8]-naphthyridin-4(5H)-one], for which the responders at 100 mg/kg in data set [1] turned out to be 20%. `O=c1c2c(ncn2CCCO)c2cccnc2n1-c1ccccc1` [Compound 51, 3-(3-Hydroxypropyl)-5-phenyl-3H-imidazo[4,5-c][1,8]naphthyridin-4(5H)-one]: in data set [1], the responders at 100 mg/kg was found to be 80%. With `CCOC(=O)Cn1cnc2c3cccnc3n(-c3ccccc3)c(=O)c21` [Compound 32, 3-Ethoxycarbonylmethyl-5-phenyl-3H-imidazo[4,5-c][1,8]naphthyridin-4(5H)-one], the IC50 in data set [3] turned out to be 680 nM. The responders at 100 mg/kg in data set [1] was 0%. In the data set with ddY strain male mice, the “MLD (Minimum Lethal Dose) i.p.” value is more than 100 mg/kg and the “MLD (Minimum Lethal Dose) p.o.” value is on record as more than 300 mg/kg. On to `O=c1c2c(ncn2CC=Cc2ccccc2)c2cccnc2n1-c1ccccc1` [Compound 36, 3-Cinnamyl-5-phenyl-3H-imidazo[4,5-c][1,8]naphthyridin-4(5H)-one], for which the responders at 100 mg/kg in data set [1] turned out to be 20%. Also, in the data set with ddY strain male mice, the “MLD (Minimum Lethal Dose) i.p.” value is more than 100 mg/kg and the “MLD (Minimum Lethal Dose) p.o.” value is listed as more than 300 mg/kg. Turning to `O=c1c2c(ncn2Cc2cccc(Br)c2)c2cccnc2n1-c1ccccc1` [Compound 49, 3-(3-Bromophenyl)methyl-5-phenyl-3H-imidazo[4,5-c][1,8]naphthyridin-4(5H)-one], the responders at 100 mg/kg in data set [1] was 0%. On the same count and under the same terms, under `CC(O)Cn1cnc2c3cccnc3n(-c3ccccc3)c(=O)c21` (centres unmarked) [Compound 52, 3-(2-Hydroxypropyl)-5-phenyl-3H-imidazo[4,5-c][1,8]naphthyridin-4(5H)-one] stands 100%.

`Cn1cnc2c3cccnc3n(-c3ccccc3)c(=O)c21` [Compound 4, 3-Methyl-5-phenyl-3H-imidazo[4,5-c][1,8]naphthyridin-4(5H)-one]: the IC50 in data set [3] was determined as 240 nM. In the data set with ddY strain male mice, the “MLD (Minimum Lethal Dose) i.p.” value is reported as more than 50 mg/kg and the “MLD (Minimum Lethal Dose) p.o.” value is reported as more than 50 mg/kg.

`O=c1c2[nH]cnc2c2cccnc2n1-c1ccccc1` [Compound 3, 5-Phenyl-3H-imidazo[4,5-c][1,8]naphthyridin-4(5H)-one]: the IC50 in data set [3] was 770 nM. Besides, the responders at 100 mg/kg in data set [1] stood at 70%. For the same compound, in the data set on ddY strain male mice, the “MLD (Minimum Lethal Dose) i.p.” value is on record as more than 100 mg/kg and the “MLD (Minimum Lethal Dose) p.o.” value is on record as more than 300 mg/kg. For the compound `Cc1ccc(-n2c(=O)c3c(ncn3Cc3ccccc3)c3cccnc32)cc1` [Compound 57, 5-(4-Methylphenyl)-3-benzyl-3H-imidazo[4,5-c][1,8]naphthyridin-4(5H)-one], the responders at 100 mg/kg in data set [1] was determined as 0%. As to `COc1ccc(-n2c(=O)c3c(ncn3CC(C)C)c3cccnc32)cc1` [Compound 62, 3-Isobutyl-5-(4-methoxyphenyl)-3H-imidazo[4,5-c][1,8]naphthyridin-4(5H)-one], the responders at 100 mg/kg in data set [1] is 90%. On to `O=c1c2c(ncn2Cc2ccco2)c2cccnc2n1-c1ccccc1` [Compound 53, 3-Furfuryl-5-phenyl-3H-imidazo[4,5-c][1,8]naphthyridin-4(5H)-one], for which, in data set [1], the responders at 100 mg/kg was 90%. Turning to `O=c1c2c(nc(-c3ccccc3)n2Cc2ccccc2)c2cccnc2n1-c1ccccc1` [Compound 61, 2,5-Diphenyl-3-benzyl-3H-imidazo[4,5-c][1,8]naphthyridin-4(5H)-one], the responders at 100 mg/kg in data set [1] was 10%. Same read-out and setting: for `Cc1ccc(-n2c(=O)c3c(ncn3CC(C)C)c3cccnc32)cc1` [Compound 64, 3-Isobutyl-5-(4-methylphenyl)-3H-imidazo[4,5-c][1,8]naphthyridin-4(5H)-one] the value was 60%.
